Laboratory results reported in patent US7692004B2, “Use of metal complex compounds as oxidation catalysts” (Ciba Specialty Chemicals Corporation, priority 2001, dated 2010).

Columns and labels:
[1] = Bleaching action in washing agents (LINITEST, DY increase); conditions: 1:1 Mn complex with ligand, H2O2 8.6 mmol/l, 30 minutes at 40° C.
Description: 7.5 g of white cotton fabric and 2.5 g of tea-stained cotton fabric are treated in 80 ml of washing liquor. The liquor contains a standard washing agent (ECE, 456 IEC) in a concentration of 7.5 g/l. The hydrogen peroxide concentration is 8.6 mmol/l. […] The washing process is carried out in a steel beaker in a LINITEST apparatus for 30 minutes at 40° C. For evaluating the bleaching results, the increase in the lightness DY (difference in lightness according to CIE) of the stains brought about by the treatment is determined spectrophotometrically in comparison with values obtained without the addition of catalyst.

[2] = Catalytic bleaching of cellulose; conditions: catalytically bleached; 20 μM catalyst, 8.6 mM H2O2, pH 10.0, 40° C., 30 minutes; untreated sample 63.4
Description: 20 g of cellulose [TPP-CT CSF129, Ref. No. P-178635 (ISO 57.4)] are steeped in a litre of water for 65 hours and then stirred in a mixer for 2 minutes to give a paste-like pulp. A bleaching bath containing 50 g of the pulp so prepared in 180 ml of water, 100 μM of Dequest 2041 (sequestering agent), 8.6 mM of hydrogen peroxide and 20 μM of catalyst from Example 35 is maintained at 40° C. for 30 minutes. At the same time 1N sodium hydroxide solution is metered-in in such a manner that a pH of 10.0 is maintained. Filtration and air-drying are then carried out. A sample that has been compressed to form a circular sheet of 10 cm diameter is then tested for the lightness Y obtained (according to CIE, reflectance spectroscopy).

[3] = Cleaning performance on soiled surfaces at 53° C.; conditions: for Difference (rating minus rating of reference): 1:1 manganese complex 7.3 μM, 53° C., reference = catalyst-free system; for Rating: 1:1 manganese complex with ligand 7.3 μM, H2O2 1.1 mM, pH 10.0, 23° to 53° C., visual scale 1 (no cleaning) to 10 (clean)
Description: (§1) A tea-stained cup is filled with 100 ml of a buffer solution (10 mM carbonate, pH=10.0) containing 1.1 mM of hydrogen peroxide and 7.3 μM of 1:1 manganese complex (prepared as described in Application Example 2). Using a thermostat, the temperature of the solution is raised from 23° to 53° C. over a period of 12 minutes and maintained at the final temperature for 23 minutes. After rinsing and drying in air, the results are evaluated visually on a scale of 1 (no cleaning) to 10 (clean). The catalyst-free system is used as reference.

[4] = Activity of the manganese catalysts after the bleaching cycle; conditions: for Difference DDY: versus H2O2 without Mn complex
Description: 7.5 g of white cotton fabric and 2.5 g of tea-stained cotton fabric are treated in 80 ml of washing liquor. The liquor contains a standard washing agent (ECE, 456 IEC) in a concentration of 7.5 g/l. The hydrogen peroxide concentration is 8.6 mmol/l. The catalyst concentration (1:1 complex of manganese(II) chloride tetrahydrate with the ligand in question, prepared in methanolic solution with the addition of a small amount of lithium hydroxide) is 50 μmol/l. The washing process is carried out in a steel beaker in a LINITEST apparatus for 30 minutes at 40° C. For evaluating the bleaching results, the increase in the lightness DY (difference in lightness according to CIE) of the stains brought about by the treatment is determined spectrophotometrically in comparison with values obtained without the addition of catalyst.
The procedure as described in Application Example 2 is carried out for the 1st cycle, the cotton fabric is removed and for the 2nd cycle the procedure is carried out afresh with a new, as yet untreated cotton fabric. The DY values are determined as described in Application Example 2.

[5] = Action as catalyst for DTI (dye transfer inhibition); conditions: 1:1 manganese complex 50 μmol/l; H2O2 8.6 mmol/l; Direct Brown 172 10 mg/l; 30 minutes at 40° C.
Description: 7.5 g of white cotton fabric are treated in 80 ml of washing liquor. The liquor contains a standard washing agent (ECE, 456 IEC) in a concentration of 7.5 g/l. The hydrogen peroxide concentration is 8.6 mmol/l. The catalyst concentration (of manganese(II) chloride tetrahydrate with the ligand, prepared in methanolic solution with the addition of a small amount of lithium hydroxide) is 50 μmol/l, and a solution of the test dye Direct Brown 172 having 10 mg/l of the 250% formulation. The washing process is carried out in a steel beaker in a LINITEST apparatus for 30 minutes at 40° C. For testing the activity of the catalysts, the DTI activity is determined.
The reflection spectra of the samples were measured using a SPECTRAFLASH 2000 and converted into lightness values (D65/10) in accordance with a standard CIE procedure.

[6] = Catalytic action for the epoxidation of olefins; conditions: ligand 0.05 mmol with manganese(II) acetate tetrahydrate 0.04 mmol, sodium ascorbate, H2O2; 14 hours at room temperature; by 1H-NMR
Description: 17 mg (0.05 mmol) of 2-[(2-hydroxy-ethyl)-[2,2′;6′,2″]terpyridin-4′-yl-amino]-ethanol (L7, Example 7), 10 mg (0.04 mmol) of manganese(II) acetate tetrahydrate and 0.32 mmol of sodium ascorbate are added to a solution of 1.09 ml (10 mmol) of ethyl acrylate in 0.5 ml of acetonitrile. The mixture is cooled in an ice bath and a 30% strength hydrogen peroxide solution (2.27 g, 20 mmol) is added dropwise thereto in the course of 20 minutes. The mixture is then left for 14 hours at room temperature, then diluted with diethyl ether and the phases are separated. The organic extract is dried over sodium sulfate, filtered and concentrated. The catalytic turnover number for the epoxide formed, ethyl oxirane-2-carboxylate, is determined by comparing the intensity of the epoxide methine proton at 3.34-3.38 ppm with the ligand signal L7 at 8.53 ppm as reference and is 35±8. Ethyl oxirane-2-carboxylate, epoxide signals ^1H-NMR (360 MHz, CDCl3): 2.68-2.89 (m, 2H, CH2); 3.34-3.38 (m, 1H, CH). Without the addition of ligand, epoxide cannot be detected.

[7] = Decomposition of hydrogen peroxide (iodometric); conditions: 1:1 manganese complex with ligand 7.3 μM, initial H2O2 1.1 mM
Description: as §1
The procedure is as in Application Example 3 but the consumption of H2O2 is determined iodometrically.

[8] = Cleaning performance on soiled surfaces at 23° C.; conditions: 0.16 g/l, constant 23° C., 45 minutes
Description: as §1
The procedure is as in Application Example 3 but the cleaning is carried out at a constant temperature of 23° C. (duration: 45 minutes).

[9] = 50 μmol/l, ECE washing agent 7.5 g/l, versus no catalyst

Compound	DY increase [1, 9]	Difference (rating minus rating of reference) [3]	Rating [3]	other results
O=c1cc(-c2cc(N3CCCC3)ccn2)[nH]c(-c2cc(N3CCCC3)ccn2)c1 [Ligand L18, 4,4″-Di-pyrrolidin-1-yl-1′H-[2,2′;6′,2″]terpyridin-4′-one]	3.0	–	–	–
COc1ccccc1-c1cccc(-c2cccc(-c3cccc(-c4ccccc4OC)n3)n2)n1 [Ligand L29, 6,6″-Bis(2-methoxyphenyl)-2,2′:6′:2″-terpyridine]	–	–	–	Lightness Y [2]: 66.9
NNc1cc(-c2ccccn2)nc(-c2ccccn2)c1 [Ligand L4, [2,2′;6′,2″]Terpyridin-4′-yl-hydrazine]	5.0	–	–	–
c1ccc(-c2cc(N3CCCCC3)cc(-c3ccccn3)n2)nc1 [Ligand L10, 4′-Piperidin-1-yl-[2,2′;6′,2″]terpyridine]	4.4	2.1	5.2 (3.1)	–
c1ccc(-c2cc(N3CCCCCC3)cc(-c3ccccn3)n2)nc1 [Ligand L9, 4′-Azepan-1-yl-[2,2′;6′,2″]terpyridine]	3.8	–	–	–
OCCN(CCO)c1cc(-c2ccccn2)nc(-c2ccccn2)c1 [Ligand L7, 2-[(2-Hydroxy-ethyl)-[2,2′;6′,2″]terpyridin-4′-yl-amino]-ethanol]	5.6	3.6	6.9 (3.3)	Bleaching value with H2O2 and the 1:1 Mn complex (DY) ([4]; 1st cycle): DY = 23.0; Difference DDY ([4]; 1st cycle): 8.1; Bleaching value with H2O2 and the 1:1 Mn complex (DY) ([4]; 2nd cycle, same liquor, new fabric): DY = 19.0; Difference DDY ([4]; 2nd cycle): 8.0; DTI activity a [5]: 90%; Catalytic turnover number for the epoxide formed, ethyl oxirane-2-carboxylate [6]: 35±8
CCOc1ccnc(-c2cc(=O)cc(-c3cc(OCC)ccn3)[nH]2)c1 [Ligand L17, 4,4″-Diethoxy-1′H-[2,2′;6′,2″]terpyridin-4′-one]	5.3	–	–	–
c1ccc(-c2cc(N3CCOCC3)cc(-c3ccccn3)n2)nc1 [Ligand L11, 4′-Morpholin-4-yl-[2,2′;6′,2″]terpyridine]	5.5	2.4	5.7 (3.3)	–
c1ccc(-c2cc(N3CCCC3)cc(-c3ccccn3)n2)nc1 [Ligand L6, 4′-Pyrrolidin-1-yl-[2,2′;6′,2″]terpyridine]	5.8	3.9	7.2 (3.3)	–
O=c1cc(-c2ccccn2)[nH]c(-c2ccccn2)c1 [Ligand L1, 1′H-[2,2′;6′,2″]Terpyridin-4′-one]	5.0	1.9	5.0 (3.1)	Residual H2O2 ([7]; procedure of Application Example 3): 0.73 mM; Consumption ([7]; H2O2 consumption): 34%
CCOc1ccnc(-c2cc(N(CCO)CCO)cc(-c3cc(OCC)ccn3)n2)c1 [Ligand L28, 2-[(4,4″-Diethoxy-[2,2′;6′,2″]terpyridin-4′-yl)-(2-hydroxy-ethyl)-amino]-ethanol]	4.3	2.2	5.2 (3.0)	–
CN(CCO)c1ccnc(-c2cc(=O)cc(-c3cc(N(C)CCO)ccn3)[nH]2)c1 [Ligand L19, 4,4″-Bis[(2-hydroxy-ethyl)-methyl-amino]-1′H-[2,2′;6′,2″]terpyridin-4′-one]	–	–	–	DY increase ([1]; half concentration used): 5.3^1)
CN(CCO)c1ccnc(-c2cc(N(C)CCO)cc(-c3cc(N(C)CCO)ccn3)n2)c1 [Ligand L25, 2-({4′,4″-Bis[(2-hydroxy-ethyl)methyl-amino]-[2,2′;6′,2″]terpyridin-4-yl}-methylamino)-ethanol]	6.2	–	–	–
CN(CCO)c1cc(-c2ccccn2)nc(-c2ccccn2)c1 [Ligand L5, 2-(Methyl-[2,2′;6′,2″]terpyridin-4′-yl-amino)-ethanol]	5.2	–	–	–
CC(=O)N(CCN(C(C)=O)C(C)=O)C(C)=O [N,N′-tetraacetylethylenediamine (TAED), N,N,N′,N′-tetraacetylethylenediamine]	–	–	–	Difference (rating minus rating of reference) [8]: 2.9; Rating ([8]; scale 1 to 10): 6.8 (3.9)
CN1CCN(c2cc(-c3ccccn3)nc(-c3ccccn3)c2)CC1 [Ligand L8, 4′-(4-Methyl-piperazin-1-yl)-[2,2′;6′,2″]terpyridine]	5.0	–	–	–
